Experiments:
[1] = tested on: MLH1; test: qRT-PCR gene expression in A375 cells: MLH1; type: cell-based, human; settings: A375, 24 h, concentration corresponding to IC50; RQ = 2^-ΔΔCt vs control
Experimental: (§1) The expression level of genes connected with DNA repair and oxidative stress response was evaluated with quantitative real-time PCR (qRT-PCR) method. The A375 cells were seeded in 6-well culture plates at a density 1 × 10^5 cells/mL and after 70–80% confluency achievement the cells were treated with CuT1, Cu10, CuT16 in concentrations corresponding to IC50 values or DMSO as vehicle in control cultures. After 24h of incubation total RNA was isolated using the Syngen Blood/Cell RNA Mini Kit (Syngen Biotech, Wroclaw, Poland). All samples were transcribed using NG dART RT-PCR reagents (EURx, Gdansk, Poland) according to the manufacturer’s instructions. The relative mRNA expression level was determined by relative quantification method (ΔΔCt) using 18S ribosomal N5 (RNA18SN5) and beta-actin (ACTB) as endogenous controls. The reference genes were selected on the basis of our preliminary studies, where RNA18SN5 and ACTB remained unaffected by the experimental conditions. The PCR was conducted in triplicate using Applied Biosystems® 7500 Fast Real-Time PCR system (Applied Biosystems, Foster City, CA, USA) and SG qPCR Master Mix (2×) (EURx, Gdansk, Poland) in accordance with the manufacturer’s protocol. Data was presented and analysed as RQ values (RQ = 2^−ΔΔCt).

[2] = tested on: SOD2; test: qRT-PCR gene expression in A375 cells: SOD2; type: cell-based, human; settings: A375, 24 h, concentration corresponding to IC50; RQ = 2^-ΔΔCt vs control
Experimental: as §1

[3] = tested on: MSH2; test: qRT-PCR gene expression in A375 cells: MSH2; type: cell-based, human; settings: A375, 24 h, concentration corresponding to IC50; RQ = 2^-ΔΔCt vs control
Experimental: as §1

[4] = tested on: MGMT; test: qRT-PCR gene expression in A375 cells: MGMT; type: cell-based, human; settings: A375, 24 h, concentration corresponding to IC50; RQ = 2^-ΔΔCt vs control
Experimental: as §1

[5] = tested on: A375 human melanoma cells; test: MTT cell viability assay, A375 melanoma; type: cell-based
Experimental: (§2) The evaluation of cytotoxicity of tested compounds was carried out on the G361, A375, and SK-MEL-28 human melanoma cells and BJ human normal fibroblast cells. The cell lines were obtained from American Type Culture Collection (ATCC, Manassas, VA, USA). The cells were cultured at 37 °C in the presence of 5% CO2 in atmosphere. The culture medium (Dulbecco’s Modified Eagle’s Medium for G361 and A375 and Eagle’s Minimum Essential Medium for SK-MEL-28 and BJ) was supplemented with 10% foetal bovine serum. The cells morphology was examined under inverted phase contrast microscope Nikon Eclipse Ti (Nikon, Tokyo, Japan). The authenticity of tested cell lines was verified by short tandem repeat (STR) genotyping in the Department of Forensic Medicine (Medical University of Lublin, Lublin, Poland).
(§3) The cells were seeded into 96-well plates (in concentration: BJ, A375, and SK-MEL-28—1 × 10^5 cells/mL, G361—1.5 × 10^5 cells/mL) and cultured until they reach 70–80% confluency. Then the cells were incubated with tested compounds and dacarbazine in concentrations ranging from 10 to 500 µM or DMSO as vehicle in control cultures for next 24 h (max. DMSO concentration <0.5%). The compounds cytotoxicity was evaluated with the MTT colorimetric method based on the ability of viable cells to the transformation of tetrazolium salts (3-[4,5-dimethylthiazol-2-yl]-2,5-) diphenyltetrazolium bromide, MTT) to purple formazan, by cellular dehydrogenases. After 24-h-incubation cell cultures were supplemented with 20 µL of 5 mg/mL MTT (Thermofisher, Waltham, MA, USA) stock in PBS (Corning, NY, USA), and the incubation was continued for 4 h at 37 °C. Next, the medium with MTT was removed, and the formed crystals were dissolved in 200 µL of DMSO (dimethyl sulfoxide, Avantor, Gliwice, Poland). The solution absorbency was measured at 570 nm, using a PowerWave™ xs microplate spectrophotometer (BioTek Instruments, Winooski, VT, USA). The experiment was performed three times with three replicates for each concentration of tested compounds. IC50 values were determined using the AAT Bioquest IC50 calculator [51]. On the basis of obtained IC50 values for normal and malignant cells, A375 cell line and three tested compounds (CuT1, Cu10, CuT16) were chosen for further investigation.

[6] = tested on: XPC; test: qRT-PCR gene expression in A375 cells: XPC; type: cell-based, human; settings: A375, 24 h, concentration corresponding to IC50; RQ = 2^-ΔΔCt vs control
Experimental: as §1

[7] = tested on: A375 cells; test: Microscopic observation of cell morphology; type: cell-based, human; settings: A375, 24 h, concentration corresponding to IC50
Experimental: The MTT test results for selected compounds were verified by microscopic observations of cell morphology. […] A large part of the cells floated in the culture medium (Figure 5).
as §2

[8] = tested on: G361 human melanoma cells; test: MTT cell viability assay, G361 melanoma; type: cell-based; settings: G361, MTT test, 24 h treatment
Experimental: as §2, §3

[9] = tested on: DNA of A375 cells; test: DNA damage evaluation: number of AP sites; type: cell-based, human; settings: A375, 24 h, concentration corresponding to IC50; control 0.67 ± 0.08
Experimental: DNA damage was evaluated on the basis of a basic (AP) sites presence, that arose in response to oxidative damage or as an intermediate in base excision repair pathway. The A375 cells were seeded in 6-well culture plates at a density 1 × 10^5 cells/mL and after 70–80% confluency achievement the cells were treated with CuT1, Cu10, CuT16 in concentrations corresponding to IC50 values or DMSO as vehicle in control cultures. After 24 h of incubation genomic DNA was isolated using Syngen DNA Mini Kit (Syngen Biotech, Wroclaw, Poland) according to the manufacturer’s instruction. The concentrations of isolated DNA for all samples were equalized to 100 µg/mL. The measurements of the number of AP sites were evaluated with DNA Damage Quantification Kit (Dojindo, Japan) according to the manufacturer’s instruction. The DNA was treated with Aldehyde Reactive Probe (ARP) to tag all of the AP sites with a biotin residue. Then all of the AP sites were quantified using avidin—biotin assay. The coloured product of horseradish peroxidase conjugated to the avidin was detected at 650 nm using a PowerWave™ xs microplate spectrophotometer (BioTek Instruments, Winooski, VT, USA).

[10] = tested on: CAT; test: qRT-PCR gene expression in A375 cells: CAT; type: cell-based, human; settings: A375, 24 h, concentration corresponding to IC50; RQ = 2^-ΔΔCt vs control
Experimental: as §1

[11] = tested on: ERCC; test: qRT-PCR gene expression in A375 cells: ERCC; type: cell-based, human; settings: A375, 24 h, concentration corresponding to IC50; RQ = 2^-ΔΔCt vs control
Experimental: as §1

[12] = tested on: GPX2; test: qRT-PCR gene expression in A375 cells: GPX2; type: cell-based, human; settings: A375, 24 h, concentration corresponding to IC50; RQ = 2^-ΔΔCt vs control
Experimental: as §1

[13] = tested on: BJ human normal fibroblast cells; test: MTT cell viability assay, BJ normal fibroblasts; type: cell-based; settings: MTT test, 24 h treatment
Experimental: as §2, §3

[14] = tested on: SK-MEL-28 human melanoma cells; test: MTT cell viability assay, SK-MEL-28 melanoma; type: cell-based; settings: SK-MEL-28, MTT test, 24 h treatment
Experimental: as §2, §3

[15] = tested on: PARP1; test: qRT-PCR gene expression in A375 cells: PARP1; type: cell-based, human; settings: A375, 24 h, concentration corresponding to IC50; RQ = 2^-ΔΔCt vs control
Experimental: as §1

[16] = tested on: ATM; test: qRT-PCR gene expression in A375 cells: ATM; type: cell-based, human; settings: A375, 24 h, concentration corresponding to IC50; RQ = 2^-ΔΔCt vs control
Experimental: as §1

[17] = tested on: OGG1; test: qRT-PCR gene expression in A375 cells: OGG1; type: cell-based, human; settings: A375, 24 h, concentration corresponding to IC50; RQ = 2^-ΔΔCt vs control
Experimental: as §1

IC50 ([5]; A375, MTT test, 24 h treatment): 145 ± 19.9 µM | IC50 [8]: > 500 µM | IC50 [14]: 478 ± 11 µM
Compound: COc1ccc(C=NNC(=S)Nc2ccc(Cl)cc2)cc1OC.[Cl-].[Cl-].[Cu+2] [CuT16]
Mean RQ MLH1 mRNA [1]: 0.929 | Mean RQ SOD2 mRNA [2]: 1.393 | Mean RQ MSH2 mRNA [3]: 0.936 | Mean RQ MGMT mRNA [4]: 0.361 | toxicity to A375 / malignant cells versus normal cells (in words) ([5]; from IC50 values, MTT, 24 h): less toxic for normal cells | Mean RQ XPC mRNA [6]: 1.438 | cell morphology (in words) [7]: became round and had poor adherence | AP sites number [9]: 14.09 ± 0.44 AP/100 kbp | Mean RQ CAT mRNA [10]: 0.387 | Mean RQ ERCC mRNA [11]: 0.267 | Mean RQ GPX2 mRNA [12]: 0.022 | IC50 [13]: 450 ± 11.7 µM | Mean RQ PARP1 mRNA [15]: 0.640 | Mean RQ ATM mRNA [16]: 2.724 | Mean RQ OGG1 mRNA [17]: 0.952

From publication PMC8002893, “Influence of Complexation of Thiosemicarbazone Derivatives with Cu (II) Ions on Their Antitumor Activity against Melanoma Cells” (International Journal of Molecular Sciences, 2021)
